Test results taken from PubChem BioAssay (NCI).
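Growth conditions: 96-well plates. Treatment: test compound, 48 hours, 5 concentrations. Analysis: linear interpolation between bracketing concentrations; unreached endpoints set to highest concentration. At the GI50, growth is halved. TGI denotes the concentration required for complete inhibition of growth.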

Legend:
Assay in all cases: NCI-60 cell line screen, 48 h
NCI/ADR-RES ovarian = test system: NCI/ADR-RES ovarian
NCI-H460 lung = test system: NCI-H460 lung
TK-10 renal = test system: TK-10 renal
SF-268 CNS = test system: SF-268 CNS
NCI-H23 lung = test system: NCI-H23 lung
HOP-92 NSCLC = test system: HOP-92 NSCLC
CCRF-CEM leukemia = test system: CCRF-CEM leukemia
NCI-H522 lung = test system: NCI-H522 lung
A498 renal = test system: A498 renal
DU-145 prostate = test system: DU-145 prostate

SMILES	GI50 (NCI/ADR-RES ovarian) [µM]	TGI (NCI/ADR-RES ovarian) [µM]	GI50 (NCI-H460 lung) [µM]	TGI (NCI-H460 lung) [µM]	GI50 (TK-10 renal) [µM]	TGI (TK-10 renal) [µM]	GI50 (SF-268 CNS) [µM]	TGI (SF-268 CNS) [µM]	GI50 (NCI-H23 lung) [µM]	TGI (NCI-H23 lung) [µM]	GI50 (HOP-92 NSCLC) [µM]	TGI (HOP-92 NSCLC) [µM]	GI50 (CCRF-CEM leukemia) [µM]	TGI (CCRF-CEM leukemia) [µM]	GI50 (NCI-H522 lung) [µM]	TGI (NCI-H522 lung) [µM]	TGI (A498 renal) [µM]	TGI (DU-145 prostate) [µM]	GI50 (A498 renal) [µM]	GI50 (DU-145 prostate) [µM]
C=CC1CC12C(=O)C1OC2(C)C2C(=O)c3c(ccc4c3ccc3ccccc34)C(=O)C12 (configuration not stated)	74.9	> 100	37.1	> 100	52.9	> 100	36.2	> 100	37.3	> 100	34.4	> 100	17.1	> 100	> 100	> 100				
COC(OC)c1cccc2c1C1(O)CCC3(CC21)OCCCCO3 (configuration not stated)				> 100		> 100		> 100		> 100				> 100		> 100	> 100			
CCCNCc1nc2ccc(Br)cc2c(=O)n1CCC								26.9		26.2				36.3		26.8	32			
C(=C\c1csnn1)/c1cccnc1				> 100		> 100		> 100		> 100						> 100	> 100			
COc1ccc2c3c1C(=O)CCC3CO2 (configuration not stated)				> 100		> 100		> 100		> 100		> 100		> 100		> 100	> 100			
CC(=O)OC1CC2CCC1(C)C2(C)C (configuration not stated)		> 100		> 100		> 100		> 100		> 100				> 100		> 100	> 100	> 100		
CC(=O)N1CC2Nc3ccccc3C2CC1CO (configuration not stated)				> 100		> 100		> 100		> 100		> 100		> 100		> 100	> 100			
CCCCCCCCCCCC(=O)OCC1OC(n2cc(F)c(=O)[nH]c2=O)C(N)C(OC(=O)CCCCCCCCCCC)C1O (configuration not stated)				> 100		> 100		> 100		> 100		98.8		> 100		> 100	> 100			
Cc1ccccc1C(=O)Oc1ccc(Oc2ccccc2)cc1				> 100		> 100		> 100		> 100				> 100			> 100			
CCC[CH2][Sn]([CH2]CCC)([O]C(=O)c1cccc(F)c1)[O]C(=O)c1cccc(F)c1			2.08	5.38	1.29	2.58	1.16	2.53	0.329	1.57			0.239	0.832	0.246	0.91	1.98		0.467	
Cc1cc(NS(=O)(=O)c2ccc(NC(=O)c3cccc4c(N)c5ccccc5nc34)cc2)no1				> 100		> 100		76.9		52.2				66.5		33.9	52			
C=C=C(C)[Si](C)(C)C		> 100		> 100		> 100		> 100		> 100				> 100		> 100	> 100	> 100		
C=C1CC(CCCl)(c2ccccc2)OC1=O (configuration not stated)				> 100		> 77.7		> 90.5		> 100		34.2		49.2		33.2	> 100			
O=c1ccccc2cccc(O)c12				> 100		> 100				> 100		> 100		> 100			> 100			
O=C(COc1cccc(/C=C2\COc3ccccc3C2=O)c1)Nc1nccs1	4.97	21.8	6.92	31.6	3.05	5.52	1.95	3.69	1.95	3.94			1.63	4.91	1.52	3.19	29.2	3.37	15.7	1.96
O=C(O)/C(=C/c1ccccc1[N+](=O)[O-])c1ccccc1				> 100		> 100		> 100		> 100						> 100	> 100			
O=C(N/N=C1\CCc2ccccc2C1)N/N=C1\CCc2ccccc2C1		> 10		> 10		> 10		> 10		> 10				> 10		> 10		> 10		
CCCCC(=O)N/N=C/c1cc(I)cc(I)c1O	2.58	20.1	2.25	15.5			2.15	21.6					1.23	12.5	2.91	17.5	44.2	31	13.8	4.24
Nc1ccc(Nc2nc(F)nc(-c3c4ccccc4c4n3CCS4)n2)cc1						34.2		37.1		32.7		30.5		62.2		28.6				
COc1ccc(O)c(C(=O)c2ccc(C(=O)O[C@@H]3CCCNC[C@H]3NC(=O)c3ccncc3)cc2)c1F	1.87	24.2	0.869	> 25	3.51	> 25	0.753	> 25	1.91	> 25			0.313	> 6.03	1.74	> 13	1.6	> 25	0.189	1.47
CC(c1ccc(Br)cc1)C(C(=O)O)C(=O)O (configuration not stated)				> 100		> 100		> 100		> 100				> 100		> 100				
Cc1ccc(NC(=O)/C(CC(=O)c2c[n+](=O)c3ccccc3n2O)=N\NC(=O)C[n+]2ccccc2)cc1				> 100		> 100		> 100						> 100		> 100	> 100			
Cc1c(C(=O)/C=C/c2ccc(Cl)cc2)[n+](=O)c2ccccc2n1[O-]				29.1		35.5		28.6		22.2		37.7		> 100		17	29.2			
